Reference: patent publication US20260043028A1, “TREATMENT OF SPINAL MUSCULAR ATROPHY” (University of Pittsburgh - Of the Commonwealth System of …, priority 2023, published 2026)

Tested on: human patients with Type 3 SMA
Test: Four-week spinal cord stimulation (SCS) trial in SMA patients with or without concurrent SMA therapy (Nusinersen), with long-term follow-up
Type: in vivo
From the text: This example describes a particular method that can be used to treat SMA in a patient by applying a therapeutically effective amount of an electrical stimulus to the dorsolateral aspect of the spinal cord containing sensory neurons innervating a body region of the patient with motor impairment due to SMA. Although particular methods and protocols are provided, one skilled in the art will appreciate that variations can be made without substantially affecting the treatment. Three patients with SMA were identified and participated in this spinal cord stimulation trial. […]
Three human patients with Type 3 SMA that show quantifiable motor deficits of the legs are selected for treatment. […]
This example aims to measure immediate, end-of-study, and long-term effects of SCS on SMA including various clinical outcomes. […] As used herein, “immediate” refers to effects measured during the four-week study and relates to the usage of SCS. […] As used herein, “end-of-study” refers to effects measured within about 1 week before or after the end of the four-week study, around the time that the SCS electrodes are removed. […] In particular, as used herein, “long-term” refers to effects measured 50+ days after the electrodes are removed and relates to changes in motor ability over time without the continuous application of SCS. […]

## Nusinersen
SMA02 and SMA03 (Nusinersen plus SCS) vs SMA01 (SCS only), during the four-week experiment
  results throughout the course of the four-week experiment, compared with the patient not treated with an SMA therapy: did not exhibit substantially better results
SMA02 and SMA03 on SMA therapy during SCS, long-term follow-up (50+ days after explant), SMA01 without therapy showed long-term degradation
  long-term course of the beneficial effects of SCS: long-term stability in the beneficial effects of SCS
